From the Kinase Knowledgebase extract (Sharma et al. 2016)
Several values for one entry are separate records, joined by “and”; a condition that tells them apart may be missing. Identical values can stand only once. One block for each compound: values may come before it.

Legend:
[1] = target: EGFR (mouse) (UniProt P00533); details: balb/mk cells
[2] = target: ROCK2 (human) (UniProt O75116); assay: Enzyme Assay
[3] = target: ROCK2 (human) (UniProt O75116); assay: Enzyme Assay; remark: listed apart in the source
[4] = target: ROCK2 (human) (UniProt O75116)
[5] = target: EGFR (UniProt P00533)
[6] = target: EGFR (human) (UniProt P00533); details: A431
[7] = target: PIK3CA (human) (UniProt P42336); assay: Inhibition of PIK3CA Kinase Activity in HeLa Cells
[8] = target: PIK3CA (human), P42336 [Wild-Type]; assay: Assessment of Proliferation of NZB5 Cells Expressing Wild-Type PIK3CA Kinase
[9] = target: EGFR (UniProt P00533); remark: listed apart in the source
[10] = target: EGFR (human) (UniProt P00533); details: a431
[11] = target: EGFR (human) (UniProt P00533); details: a431; remark: listed apart in the source
[12] = target: EGFR (human) (UniProt P00533)
[13] = target: EGFR (human) (UniProt P00533); remark: listed apart in the source
[14] = target: MAPK14 (UniProt Q16539); assay: p38-alpha 2 Inhibition
[15] = target: EGFR (UniProt P00533); remark: listed apart in the source
[16] = target: MAPK14 (human) (UniProt Q16539); assay: Enzyme Assay
[17] = target: MAPK14 (human) (UniProt Q16539); assay: Enzyme Assay; remark: listed apart in the source
[18] = target: EGFR (murine) (UniProt P00533); details: nih3t3
[19] = system: MAPK14 (sprague-dawley rat); assay: p38-mediated TNF-alpha Inhibition (Sprauge-Dawley Rats); details: dose or concentration not given here
[20] = target: EGFR (human), P00533 [WT]
[21] = target: EGFR (human) (UniProt P00533); details: a431; remark: listed apart in the source
[22] = target: EGFR (human) (UniProt P00533); remark: listed apart in the source
[23] = target: EGFR (mouse) (UniProt P00533); details: nih3t3/c7
[24] = target: EGFR (human) (UniProt P00533); remark: listed apart in the source
[25] = target: EGFR (human) (UniProt P00533); details: a431; remark: listed apart in the source
[26] = target: EGFR (human) (UniProt P00533); remark: listed apart in the source
[27] = target: EGFR (human) (UniProt P00533); details: a549
[28] = target: CDK2 (UniProt P24941); assay: Enzyme Assay
[29] = target: CDK2 (UniProt P24941); assay: Enzyme Assay; remark: listed apart in the source
[30] = target: PIK3CA (UniProt P42336); assay: PIK3CA Inhibition
[31] = target: EGFR (human) (UniProt P00533); remark: listed apart in the source
[32] = target: EGFR (UniProt P00533); remark: listed apart in the source
[33] = target: EGFR (UniProt P00533); remark: listed apart in the source
[34] = target: EGFR (mouse) (UniProt P00533); details: swiss 3t3 fibroblast

Sequence of ROCK2 (human) (O75116 whole entry, looked up): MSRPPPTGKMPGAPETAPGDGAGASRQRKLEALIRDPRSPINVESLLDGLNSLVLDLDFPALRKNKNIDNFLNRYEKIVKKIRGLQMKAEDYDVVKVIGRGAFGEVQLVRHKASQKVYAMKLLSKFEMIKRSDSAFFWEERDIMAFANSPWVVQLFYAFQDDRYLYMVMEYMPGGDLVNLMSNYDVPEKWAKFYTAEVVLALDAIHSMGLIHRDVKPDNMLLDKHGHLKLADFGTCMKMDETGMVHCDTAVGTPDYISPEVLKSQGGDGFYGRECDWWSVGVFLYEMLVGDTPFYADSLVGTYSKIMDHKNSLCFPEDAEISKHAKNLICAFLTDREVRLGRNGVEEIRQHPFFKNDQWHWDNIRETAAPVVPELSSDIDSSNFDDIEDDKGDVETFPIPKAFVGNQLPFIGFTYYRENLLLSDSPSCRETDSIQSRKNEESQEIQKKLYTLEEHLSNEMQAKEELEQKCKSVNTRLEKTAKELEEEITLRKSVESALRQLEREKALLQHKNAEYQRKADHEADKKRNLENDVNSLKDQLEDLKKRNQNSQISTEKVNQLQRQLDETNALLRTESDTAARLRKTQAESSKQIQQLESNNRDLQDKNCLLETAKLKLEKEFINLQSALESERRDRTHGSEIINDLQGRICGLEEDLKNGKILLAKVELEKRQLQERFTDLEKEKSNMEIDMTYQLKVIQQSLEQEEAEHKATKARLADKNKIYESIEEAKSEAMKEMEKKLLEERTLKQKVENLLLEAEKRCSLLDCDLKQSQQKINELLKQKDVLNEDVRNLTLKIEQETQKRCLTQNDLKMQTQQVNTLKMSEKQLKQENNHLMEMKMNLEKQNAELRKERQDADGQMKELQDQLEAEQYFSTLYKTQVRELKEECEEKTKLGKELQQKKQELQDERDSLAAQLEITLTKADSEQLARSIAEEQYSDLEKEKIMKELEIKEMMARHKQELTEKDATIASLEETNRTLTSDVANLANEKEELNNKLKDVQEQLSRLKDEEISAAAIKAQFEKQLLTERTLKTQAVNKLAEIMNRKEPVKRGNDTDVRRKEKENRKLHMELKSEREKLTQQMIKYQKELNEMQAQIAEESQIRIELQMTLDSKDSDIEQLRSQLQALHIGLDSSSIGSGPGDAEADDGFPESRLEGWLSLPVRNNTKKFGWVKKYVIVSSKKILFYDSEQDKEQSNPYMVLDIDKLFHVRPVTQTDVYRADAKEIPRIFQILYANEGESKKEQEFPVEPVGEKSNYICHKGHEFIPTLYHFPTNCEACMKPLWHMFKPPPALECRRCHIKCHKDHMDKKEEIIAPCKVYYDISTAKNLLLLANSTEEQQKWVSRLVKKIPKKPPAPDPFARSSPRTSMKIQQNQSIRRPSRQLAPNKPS
Sequence of EGFR (P00533 whole entry, looked up): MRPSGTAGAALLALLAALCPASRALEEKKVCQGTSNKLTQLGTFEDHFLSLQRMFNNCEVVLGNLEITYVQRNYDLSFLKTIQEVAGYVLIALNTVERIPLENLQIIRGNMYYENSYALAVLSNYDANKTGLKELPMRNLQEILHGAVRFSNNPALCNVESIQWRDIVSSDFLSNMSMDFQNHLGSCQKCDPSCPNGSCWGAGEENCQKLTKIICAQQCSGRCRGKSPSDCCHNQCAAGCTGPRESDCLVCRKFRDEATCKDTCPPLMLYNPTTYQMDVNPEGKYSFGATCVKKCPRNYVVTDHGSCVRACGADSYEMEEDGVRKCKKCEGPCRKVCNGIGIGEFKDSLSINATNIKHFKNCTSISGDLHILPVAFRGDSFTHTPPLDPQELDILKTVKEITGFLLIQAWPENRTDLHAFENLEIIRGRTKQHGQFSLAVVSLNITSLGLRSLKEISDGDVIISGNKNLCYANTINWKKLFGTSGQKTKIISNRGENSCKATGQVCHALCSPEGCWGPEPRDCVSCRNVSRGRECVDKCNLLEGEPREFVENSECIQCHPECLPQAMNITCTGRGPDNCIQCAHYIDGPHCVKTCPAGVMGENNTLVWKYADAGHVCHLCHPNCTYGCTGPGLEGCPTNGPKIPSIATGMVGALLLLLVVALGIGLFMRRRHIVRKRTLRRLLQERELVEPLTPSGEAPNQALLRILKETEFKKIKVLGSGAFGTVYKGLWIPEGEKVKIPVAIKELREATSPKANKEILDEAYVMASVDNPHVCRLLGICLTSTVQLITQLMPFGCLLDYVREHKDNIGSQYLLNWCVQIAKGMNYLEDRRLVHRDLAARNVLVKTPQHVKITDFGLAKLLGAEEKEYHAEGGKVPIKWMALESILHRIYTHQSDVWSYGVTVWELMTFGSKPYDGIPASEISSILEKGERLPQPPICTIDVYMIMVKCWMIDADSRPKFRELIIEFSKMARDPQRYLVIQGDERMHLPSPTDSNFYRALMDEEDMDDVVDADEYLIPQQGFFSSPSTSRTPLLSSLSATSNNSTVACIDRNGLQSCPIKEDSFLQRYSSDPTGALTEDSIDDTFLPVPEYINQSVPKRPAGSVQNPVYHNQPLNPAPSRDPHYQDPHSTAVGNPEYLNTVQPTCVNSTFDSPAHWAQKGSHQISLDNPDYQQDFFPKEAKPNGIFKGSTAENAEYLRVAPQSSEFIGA
Sequence of EGFR (human) (P00533 whole entry, looked up): as above
Sequence of MAPK14 (human) (Q16539 whole entry, looked up): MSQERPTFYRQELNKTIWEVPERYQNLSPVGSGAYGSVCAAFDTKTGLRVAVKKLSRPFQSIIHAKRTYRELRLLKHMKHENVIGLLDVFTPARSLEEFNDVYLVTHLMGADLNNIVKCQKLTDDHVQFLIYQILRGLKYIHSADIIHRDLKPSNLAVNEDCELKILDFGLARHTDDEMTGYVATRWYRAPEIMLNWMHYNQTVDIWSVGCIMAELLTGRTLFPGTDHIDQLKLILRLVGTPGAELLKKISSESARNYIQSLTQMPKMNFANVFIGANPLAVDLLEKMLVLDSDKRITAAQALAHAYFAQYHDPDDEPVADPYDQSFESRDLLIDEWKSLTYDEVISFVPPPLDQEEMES
Sequence of MAPK14 (Q16539 whole entry, looked up): as above

IC50 [1]: > 50000 nM
SMILES: C[C@H](NC(=O)c1ccc(S(=O)(=O)Oc2ccc(/C=C/[N+](=O)[O-])cc2)cc1)C(=O)N[C@@H](C)C(=O)NCCN

IC50 [2]: < 1 nM
IC50 [3]: < 1 nM
SMILES: CC(C)OC(=O)Cc1cccc(NC(=O)c2cccc(-c3cc(C(=O)Nc4ccncc4F)ccc3CN)c2)c1

IC50 [4]: 2.66 nM
SMILES: COc1cccc([C@@H](C)NC(=O)c2ccc3c(c2)oc2c(C)nccc23)c1

IC50 [5]: 10 nM
SMILES: COc1cc2ncnc(Nc3ccc(F)c(Cl)c3)c2cc1OCCN1CCN(C)CC1

IC50 [6]: 49200 nM
EC50 [7]: 21600 nM
SMILES: Nc1nc(N)c2c(n1)[nH]c1cccc(Sc3ccccc3)c12

IC50 [8]: 100 nM
SMILES: Oc1cccc2c1nc(C(F)F)n2-c1nc(N2CCOCC2)cc(N2CCOCC2)n1

IC50 [9]: > 500000 nM
SMILES: O=C(c1c[nH]c2ccccc12)N1CCC(Cc2ccccc2)CC1

Ki [10]: 0.168 nM
SMILES: Oc1ccc2c(Nc3cccc(Br)c3)ncnc2c1

IC50 [9]: > 500000 nM
SMILES: O=C(c1cccc2[nH]ccc12)N1CCC(Cc2ccccc2)CC1

IC50 [11]: 37500 nM
SMILES: CNC(=O)c1ccc(S(=O)(=O)Oc2ccc(/C=C/[N+](=O)[O-])cc2)cc1

IC50 [12]: 147 nM
SMILES: Nc1nc(Nc2ccccc2)c2c(n1)[nH]c1ccccc12

IC50 [13]: 250 nM
SMILES: CCn1c(=O)c(-c2c(Cl)cccc2Cl)cc2cnc(Nc3ccncc3)nc21

SMILES: NC(=O)c1ccccc1NC(=O)Nc1ccc(Cl)c(Cl)c1
IC50 [14]: 100 nM

IC50 [15]: 0.5 nM
SMILES: Cn1ccc2cc3c(Nc4cccc(Br)c4)ncnc3cc21

IC50 [16]: > 30000 nM and 3300 nM
IC50 [17]: 184 nM
SMILES: Cc1cccc(COc2nc(C)n(-c3cc(-c4ccnc(C(C)(C)O)n4)ccc3C)c(=O)c2Cl)n1

IC50 [18]: > 100000 nM
SMILES: CC(C)S(=O)(=O)c1csc(NC(=O)Nc2ccc(C(C)(C)C)cc2)c1Cl

SMILES: CNCC#Cc1cccc(C(=O)c2cnn(-c3ccc(F)cc3)c2N)c1
inhibition [19]: 86%

IC50 [20]: 5500 nM
SMILES: Brc1cccc(Nc2ccnc3ccccc23)c1

IC50 [16]: 566 nM
IC50 [17]: 40 nM
SMILES: Cc1ccc(-c2ccnc(C(C)(C)O)n2)cc1-n1c(C)nc(OCc2ncc(F)cc2F)c(Cl)c1=O

IC50 [21]: 490 nM
SMILES: C#Cc1cccc(Nc2c([N+](=O)[O-])cnc3cc(OCc4ccccc4)c(OC)cc23)c1

IC50 [22]: 100 to 1000 nM
SMILES: CN(C/C=C/C(=O)Nc1cccc(-n2nc(-c3ccc(Cl)cc3)c3c(N)ncnc32)c1)C1CC1

IC50 [23]: > 10000 nM
SMILES: Cc1nc2cc3nc(-c4ccccc4)[nH]c3cc2nc1C

IC50 [24]: 5900 nM
SMILES: COc1cc2ncnc(Oc3ccc(Br)cc3F)c2cc1OC

IC50 [25]: 15300 nM
IC50 [26]: 2120 nM
IC50 [27]: 18600 nM
SMILES: COc1cc(OC)c2c(=O)n(-c3cccc(C(=O)NC4CCCC4)c3)ccc2c1

IC50 [28]: 296 nM
IC50 [29]: 2550 nM
SMILES: COc1ccc2c(-c3ccc(N4CCC(N)C4)cc3)nc(N)nc2c1C(C)C (stereo not drawn)

IC50 [30]: 38400 nM
SMILES: CCCCCCCCCCCCCCCC(=O)OC[C@H](COP(=O)(O)O[C@H]1[C@H](O)[C@@H](O)[C@H](O)C[C@H]1O)OC(=O)CCCCCCCCCCCCCCC

IC50 [31]: 1600 nM
SMILES: Cc1cc(N2CCOCC2)cc2[nH]c(-c3c(NC[C@@H](O)c4ccccc4Cl)cc[nH]c3=O)nc12

IC50 [13]: 308 nM
SMILES: Cn1c(=O)c(-c2c(Cl)cccc2Cl)cc2cnc(Nc3cccc(Br)c3)nc21

IC50 [25]: 2250 nM
IC50 [26]: 1380 nM
IC50 [27]: 14200 nM
SMILES: COc1cc(O)c2c(=O)n(-c3cccc(C(=O)NC4CCCC4)c3)ccc2c1

SMILES: CCn1cnc2c(Nc3cccc(Cl)c3)nc(N[C@@H]3CCCC[C@@H]3N)nc21
IC50 [32]: > 10000 nM

IC50 [33]: 78 nM
SMILES: Cn1c(=O)c(-c2c(Cl)cccc2Cl)cc2cnc(Nc3ccccc3)nc21

IC50 [18]: > 100000 nM
SMILES: N#Cc1ccc(NC(=S)Nc2ccc(S(=O)(=O)N3CCCCC3)cc2)cc1

SMILES: O=C(O)Cc1c(SSc2[nH]c3ccccc3c2CC(=O)O)[nH]c2ccccc12
IC50 [34]: > 50000 nM

inhibition ([14]; concentration not given here): 9%
SMILES: O=C(Nc1cc(C2[C@H]3C[C@@H]4C[C@@H](C[C@H]2C4)C3)no1)Nc1cccc(Cl)c1Cl (stereo partly drawn)
